Results as given in patent US20240109917A1 (ACTELION PHARMACEUTICALS LTD, priority 2020, published 2024).

Tests used:
VEGFR2, unphosphorylated = VEGFR2, unphosphorylated (Homo sapiens (Human), UniProt P35968); assay: VEGFR ADP GLO Assay; assay type: biochemical
[1] = target: Tb-labeled inactive PDGFRβ (Homo sapiens (Human), UniProt P09619); assay: PDGFRβ LanthaScreen Assay; assay type: binding; details: read-out: PDGFR Lantha IC50
Chain of Tb-labeled inactive PDGFRβ (P09619 33-1106): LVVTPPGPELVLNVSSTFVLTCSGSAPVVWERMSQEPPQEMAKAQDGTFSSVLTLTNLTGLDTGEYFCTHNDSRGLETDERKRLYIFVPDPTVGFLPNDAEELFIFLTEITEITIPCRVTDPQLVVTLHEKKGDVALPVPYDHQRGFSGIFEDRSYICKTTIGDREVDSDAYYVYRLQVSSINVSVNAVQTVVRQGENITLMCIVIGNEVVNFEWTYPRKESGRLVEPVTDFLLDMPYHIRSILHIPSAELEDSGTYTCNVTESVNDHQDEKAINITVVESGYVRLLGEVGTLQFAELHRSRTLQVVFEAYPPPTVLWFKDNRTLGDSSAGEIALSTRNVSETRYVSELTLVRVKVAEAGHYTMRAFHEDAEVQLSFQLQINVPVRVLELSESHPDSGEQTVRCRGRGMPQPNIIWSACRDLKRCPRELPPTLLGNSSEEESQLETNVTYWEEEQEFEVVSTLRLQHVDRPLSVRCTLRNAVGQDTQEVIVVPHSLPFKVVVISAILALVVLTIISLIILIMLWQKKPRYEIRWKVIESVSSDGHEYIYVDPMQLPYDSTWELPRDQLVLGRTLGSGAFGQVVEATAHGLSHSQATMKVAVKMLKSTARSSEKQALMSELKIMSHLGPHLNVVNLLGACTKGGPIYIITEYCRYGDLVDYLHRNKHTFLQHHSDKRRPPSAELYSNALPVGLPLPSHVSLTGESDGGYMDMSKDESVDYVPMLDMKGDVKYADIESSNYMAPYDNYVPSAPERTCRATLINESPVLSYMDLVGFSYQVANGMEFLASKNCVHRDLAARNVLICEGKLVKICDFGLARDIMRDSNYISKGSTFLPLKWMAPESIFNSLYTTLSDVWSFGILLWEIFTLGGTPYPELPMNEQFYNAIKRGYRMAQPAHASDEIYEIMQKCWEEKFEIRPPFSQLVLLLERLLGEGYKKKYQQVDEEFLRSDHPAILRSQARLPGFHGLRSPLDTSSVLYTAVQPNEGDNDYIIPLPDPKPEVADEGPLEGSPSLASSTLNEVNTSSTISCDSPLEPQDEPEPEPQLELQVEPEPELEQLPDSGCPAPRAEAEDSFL

Chain of VEGFR2, unphosphorylated (P35968 20-1356): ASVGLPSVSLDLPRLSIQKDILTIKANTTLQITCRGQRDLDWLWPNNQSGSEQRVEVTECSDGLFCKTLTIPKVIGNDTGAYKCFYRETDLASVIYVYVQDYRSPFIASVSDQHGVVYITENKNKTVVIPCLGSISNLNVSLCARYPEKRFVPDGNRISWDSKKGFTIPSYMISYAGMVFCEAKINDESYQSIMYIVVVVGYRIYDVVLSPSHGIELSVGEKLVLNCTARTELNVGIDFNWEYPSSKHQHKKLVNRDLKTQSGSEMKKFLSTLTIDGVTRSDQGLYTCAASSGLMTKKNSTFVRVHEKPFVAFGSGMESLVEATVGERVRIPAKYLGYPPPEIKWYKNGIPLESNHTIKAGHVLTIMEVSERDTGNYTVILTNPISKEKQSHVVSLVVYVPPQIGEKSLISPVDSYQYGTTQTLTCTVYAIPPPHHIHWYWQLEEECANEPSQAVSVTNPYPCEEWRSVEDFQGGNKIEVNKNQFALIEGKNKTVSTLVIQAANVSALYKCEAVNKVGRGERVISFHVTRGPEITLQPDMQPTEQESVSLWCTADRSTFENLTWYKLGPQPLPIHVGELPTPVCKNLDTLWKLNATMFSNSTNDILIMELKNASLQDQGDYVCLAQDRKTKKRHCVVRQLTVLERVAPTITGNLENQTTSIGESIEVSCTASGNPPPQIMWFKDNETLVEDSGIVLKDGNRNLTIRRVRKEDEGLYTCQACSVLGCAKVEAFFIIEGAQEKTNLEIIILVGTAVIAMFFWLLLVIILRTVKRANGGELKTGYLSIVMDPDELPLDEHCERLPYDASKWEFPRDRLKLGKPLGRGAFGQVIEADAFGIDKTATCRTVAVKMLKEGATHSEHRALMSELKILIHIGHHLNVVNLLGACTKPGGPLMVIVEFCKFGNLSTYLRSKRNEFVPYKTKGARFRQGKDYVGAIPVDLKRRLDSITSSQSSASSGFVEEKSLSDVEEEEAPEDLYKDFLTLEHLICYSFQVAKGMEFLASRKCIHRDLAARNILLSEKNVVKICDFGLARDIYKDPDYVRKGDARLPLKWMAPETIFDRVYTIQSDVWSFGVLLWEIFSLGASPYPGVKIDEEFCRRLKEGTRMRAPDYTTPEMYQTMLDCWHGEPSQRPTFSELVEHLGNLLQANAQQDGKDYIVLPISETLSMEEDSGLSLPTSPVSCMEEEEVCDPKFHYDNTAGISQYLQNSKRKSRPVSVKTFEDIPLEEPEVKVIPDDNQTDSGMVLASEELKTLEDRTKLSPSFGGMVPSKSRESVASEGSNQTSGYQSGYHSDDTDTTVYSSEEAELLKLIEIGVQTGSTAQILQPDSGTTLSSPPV

Structure (SMILES)	IC50 (VEGFR2, unphosphorylated) [nM]	IC50 [1] [nM]
Cc1ncc(NC(=O)CN2CC(C)(C)C2)cc1NC(=O)c1cnn2cc(-c3cn[nH]c3)sc12 [Example 271, N-(5-(2-(3,3-dimethylazetidin-1-yl)acetamido)-2-methylpyridin-3-yl)-2-(1H-pyrazol-4-yl)pyrazolo[5,1-b]thiazole-7-carboxamide]	5930	2.8
Cc1ncc(NC(=O)C2CCCCN2C(C)C)cc1NC(=O)c1cnn2cc(-c3cccnc3O)sc12 (stereo not drawn) [Example 314, 2-(2-hydroxypyridin-3-yl)-N-(5-(1-isopropylpiperidine-2-carboxamido)-2-methylpyridin-3-yl)pyrazolo[5,1-b]thiazole-7-carboxamide]	> 7500	64.4
Cc1ncc(NC(=O)CN(C)C2CCOCC2)cc1NC(=O)c1cnn2cc(-c3cnn(CC#N)c3)sc12 [Example 299, 2-(1-(cyanomethyl)-1H-pyrazol-4-yl)-N-(2-methyl-5-(2-(methyl(tetrahydro-2H-pyran-4-yl)amino)acetamido)pyridin-3-yl)pyrazolo[5,1-b]thiazole-7-carboxamide]	> 7500	6
COc1ncccc1-c1cn2ncc(C(=O)Nc3cc(NC(=O)CN4CCO[C@H](C)C4)cnc3C)c2s1 [Example 318, (R)-2-(2-methoxypyridin-3-yl)-N-(2-methyl-5-(2-(2-methylmorpholino)acetamido)pyridin-3-yl)pyrazolo[5,1-b]thiazole-7-carboxamide]	> 7500	1.9
Cc1ncc(NC(=O)C[C@@H]2CCCN2C(C)C)cc1NC(=O)c1cnn2cc(-c3cccnc3O)sc12 [Example 322, (S)-2-(2-hydroxypyridin-3-yl)-N-(5-(2-(1-isopropylpyrrolidin-2-yl)acetamido)-2-methylpyridin-3-yl)pyrazolo[5,1-b]thiazole-7-carboxamide]	> 7500	15.5
COc1ncccc1-c1cn2ncc(C(=O)Nc3cc(NC(=O)CN4CCCC4)cnc3C)c2s1 [Example 313, 2-(2-methoxypyridin-3-yl)-N-(2-methyl-5-(2-(pyrrolidin-1-yl)acetamido)pyridin-3-yl)pyrazolo[5,1-b]thiazole-7-carboxamide]	> 7500	2.6
Cc1ncc(NC(=O)CN(C)C2CCOCC2)cc1NC(=O)c1cnn2cc(-c3cnn(C(C)C#N)c3)sc12 (stereo not drawn) [Example 297, 2-(1-(1-cyanoethyl)-1H-pyrazol-4-yl)-N-(2-methyl-5-(2-(methyl(tetrahydro-2H-pyran-4-yl)amino)acetamido)pyridin-3-yl)pyrazolo[5,1-b]thiazole-7-carboxamide]	> 7500	8.6
Cc1ncc(NC(=O)CN2CC(C)(C)C2)cc1NC(=O)c1cnn2cc(-c3ccc(CO)o3)sc12 [Example 292, N-(5-(2-(3,3-dimethylazetidin-1-yl)acetamido)-2-methylpyridin-3-yl)-2-(5-(hydroxymethyl)furan-2-yl)pyrazolo[5,1-b]thiazole-7-carboxamide]	> 7500	2.2
COc1ncccc1-c1cn2ncc(C(=O)Nc3cc(NC(=O)C[C@H]4CCCN4C(C)C)cnc3C)c2s1 [Example 309, (R)—N-(5-(2-(1-isopropylpyrrolidin-2-yl)acetamido)-2-methylpyridin-3-yl)-2-(2-methoxypyridin-3-yl)pyrazolo[5,1-b]thiazole-7-carboxamide]	> 7500	1.5
Cc1ncc(NC(=O)CN2CC(C)(C)C2)cc1NC(=O)c1cnn2cc(-c3cnn(C4COC4)c3)sc12 [Example 264, N-(5-(2-(3,3-dimethylazetidin-1-yl)acetamido)-2-methylpyridin-3-yl)-2-(1-(oxetan-3-yl)-1H-pyrazol-4-yl)pyrazolo[5,1-b]thiazole-7-carboxamide]	> 7500	6.1
Cc1ncc(NC(=O)OC[C@@H]2CCCN2C)cc1NC(=O)c1cnn2cc(-c3cc[nH]c3)sc12 [Example 258, (S)-(1-methylpyrrolidin-2-yl)methyl (5-(2-(1H-pyrrol-3-yl)pyrazolo[5,1-b]thiazole-7-carboxamido)-6-methylpyridin-3-yl)carbamate]	> 7500	4.2
Cc1ncc(NC(=O)CN2CC(C)(C)C2)cc1NC(=O)c1cnn2cc(-c3cnn(CC(F)(F)F)c3)sc12 [Example 268, N-(5-(2-(3,3-dimethylazetidin-1-yl)acetamido)-2-methylpyridin-3-yl)-2-(1-(2,2,2-trifluoroethyl)-1H-pyrazol-4-yl)pyrazolo[5,1-b]thiazole-7-carboxamide]	> 7500	14.5
Cc1ncc(NC(=O)[C@@H]2CCCN3CCCC[C@H]23)cc1NC(=O)c1cnn2cc(-c3cnn(C)c3)sc12 [Example 308, 2-(1-methyl-1H-pyrazol-4-yl)-N-(2-methyl-5-((1R,9aR)-octahydro-2H-quinolizine-1-carboxamido)pyridin-3-yl)pyrazolo[5,1-b]thiazole-7-carboxamide]	> 7500	710
Cc1ncc(NC(=O)CN2CCC3(CCOC3)C2)cc1NC(=O)c1cnn2cc(-c3cnn(C)c3)sc12 (stereo not drawn) [Example 19, N-(5-(2-(2-oxa-7-azaspiro[4.4]nonan-7-yl)acetamido)-2-methylpyridin-3-yl)-2-(1-methyl-1H-pyrazol-4-yl)pyrazolo[5,1-b]thiazole-7-carboxamide]	> 7500	4.2
Cc1ncc(NC(=O)CN2CC(C)(C)C2)cc1NC(=O)c1cnn2cc(-c3cnn(CC4COC4)c3)sc12 [Example 263, N-(5-(2-(3,3-dimethylazetidin-1-yl)acetamido)-2-methylpyridin-3-yl)-2-(1-(oxetan-3-ylmethyl)-1H-pyrazol-4-yl)pyrazolo[5,1-b]thiazole-7-carboxamide]	> 7500	7.9
Cc1ncc(NC(=O)CN2CC(C)(C)C2)cc1NC(=O)c1cnn2cc(-c3ccoc3)sc12 [Example 283, N-(5-(2-(3,3-dimethylazetidin-1-yl)acetamido)-2-methylpyridin-3-yl)-2-(furan-3-yl)pyrazolo[5,1-b]thiazole-7-carboxamide]	> 7500	2.2
Cc1ncc(NC(=O)C[C@@H]2CCCCN2C(C)C)cc1NC(=O)c1cnn2cc(-c3cnn(C)c3)sc12 [Example 305, (S)—N-(5-(2-(1-isopropylpiperidin-2-yl)acetamido)-2-methylpyridin-3-yl)-2-(1-methyl-1H-pyrazol-4-yl)pyrazolo[5,1-b]thiazole-7-carboxamide]	> 7500	57.8
Cc1ncc(NC(=O)C(C)N2CCCCCC2)cc1NC(=O)c1cnn2cc(-c3cnn(C)c3)sc12 (stereo not drawn) [Example 306, N-(5-(2-(azepan-1-yl)propanamido)-2-methylpyridin-3-yl)-2-(1-methyl-1H-pyrazol-4-yl)pyrazolo[5,1-b]thiazole-7-carboxamide]	> 7500	9
Cc1ncc(NC(=O)CN(C)C2CCOCC2)cc1NC(=O)c1cnn2cc(-c3cnn(C(F)F)c3)sc12 [Example 295, 2-(1-(difluoromethyl)-1H-pyrazol-4-yl)-N-(2-methyl-5-(2-(methyl(tetrahydro-2H-pyran-4-yl)amino)acetamido)pyridin-3-yl)pyrazolo[5,1-b]thiazole-7-carboxamide]	> 7500	13.5
Cc1ncc(NC(=O)CN2CC(C)(C)C2)cc1NC(=O)c1cnn2cc(-c3c[nH]c4ccccc34)sc12 [Example 287, N-(5-(2-(3,3-dimethylazetidin-1-yl)acetamido)-2-methylpyridin-3-yl)-2-(1H-indol-3-yl)pyrazolo[5,1-b]thiazole-7-carboxamide]	1740	0.8
CC[C@H]1CN(CC(=O)Nc2cnc(C)c(NC(=O)c3cnn4cc(-c5cccnc5OC)sc34)c2)CCO1 [Example 311, (S)—N-(5-(2-(2-ethylmorpholino)acetamido)-2-methylpyridin-3-yl)-2-(2-methoxypyridin-3-yl)pyrazolo[5,1-b]thiazole-7-carboxamide]	> 7500	1.3
Cc1ncc(NC(=O)CN2CCCC3(COC3)C2)cc1NC(=O)c1cnn2cc(-c3cnn(C)c3)sc12 [Example 24, N-(5-(2-(2-oxa-6-azaspiro[3.5]nonan-6-yl)acetamido)-2-methylpyridin-3-yl)-2-(1-methyl-1H-pyrazol-4-yl)pyrazolo[5,1-b]thiazole-7-carboxamide]	> 7500	4.5
Cc1ncc(NC(=O)CN(C)C2CCOCC2)cc1NC(=O)c1cnn2cc(-c3cnn(CS(C)(=O)=O)c3)sc12 [Example 298, N-(2-methyl-5-(2-(methyl(tetrahydro-2H-pyran-4-yl)amino)acetamido)pyridin-3-yl)-2-(1-((methylsulfonyl)methyl)-1H-pyrazol-4-yl)pyrazolo[5,1-b]thiazole-7-carboxamide]	> 7500	6.4
Cc1ncc(NC(=O)CN2CCCCC23COC3)cc1NC(=O)c1cnn2cc(-c3cnn(C)c3)sc12 [Example 25, N-(5-(2-(2-oxa-5-azaspiro[3.5]nonan-5-yl)acetamido)-2-methylpyridin-3-yl)-2-(1-methyl-1H-pyrazol-4-yl)pyrazolo[5,1-b]thiazole-7-carboxamide]	> 7500	6.6
Cc1ncc(NC(=O)CN2CC(C)(C)C2)cc1NC(=O)c1cnn2cc(-c3ccn(S(C)(=O)=O)c3)sc12 [Example 275, N-(5-(2-(3,3-dimethylazetidin-1-yl)acetamido)-2-methylpyridin-3-yl)-2-(1-(methylsulfonyl)-1H-pyrrol-3-yl)pyrazolo[5,1-b]thiazole-7-carboxamide]	> 7500	2.5
CC(=O)Nc1cc(-c2cn3ncc(C(=O)Nc4cc(NC(=O)CN5CC(C)(C)C5)cnc4C)c3s2)ccn1 [Example 273, 2-(2-acetamidopyridin-4-yl)-N-(5-(2-(3,3-dimethylazetidin-1-yl)acetamido)-2-methylpyridin-3-yl)pyrazolo[5,1-b]thiazole-7-carboxamide]	> 7500	3.6
Cc1ncc(NC(=O)CN2CC(C)(C)C2)cc1NC(=O)c1cnn2cc(-c3cnn(C(F)(F)F)c3)sc12 [Example 269, N-(5-(2-(3,3-dimethylazetidin-1-yl)acetamido)-2-methylpyridin-3-yl)-2-(1-(trifluoromethyl)-1H-pyrazol-4-yl)pyrazolo[5,1-b]thiazole-7-carboxamide]	> 7500	71.2
